We go through 1 compound from patent US11590167B2, “Methods and compositions for use of therapeutic T cells in combination with kinase inhibitors” (Juno Therapeutics, Inc., priority 2016, dated 2023).

SMILES strings stand for the structures.

Assay [1] concerns Nalm-6 cells expressing firefly luciferase. In words: Nalm-6 disseminated tumor xenograft mouse model, inhibitor in drinking water with suboptimal anti-CD19 CAR T dose. The assay is classed as in vivo, NSG mice. The protocol: To permit assessment of the effect of a combination therapy with the inhibitor, a suboptimal dose of anti-CD19 CAR T cells was i.v. injected into the mice at 5×10^5/mouse at day 5. As a control, mice were administered the vehicle control without administration of the CAR-T cells or inhibitor.
Following treatment as described above, the tumor growth and percent survival of treated mice was determined.

Assay [2] deals with CAR+ T cells harvested from bone marrow. Kind of assay: Ex vivo immunophenotyping (t-SNE) of CAR+ T cells harvested from bone marrow. It is filed as in vivo, NSG mice. To be noted: day 12 post CAR T transfer. The procedure:
NSG mice described in Example 2 were intravenously injected on day 0 with 5×10^5 Nalm-6 cells expressing firefly luciferase. […] A bridging experiment confirmed that administration of ibrutinib by drinking water was equivalent to oral gavage administration (data not shown). To permit assessment of the effect of a combination therapy with the inhibitor, a suboptimal dose of anti-CD19 CAR T cells was i.v. injected into the mice at 5×10^5/mouse at day 5. As a control, mice were administered the vehicle control without administration of the CAR-T cells or inhibitor.
Cells were assessed for surface markers CD44, CD45RA, CD62L, CD154, CXCR3, CXCR4, PD-1 by flow cytometry and T-distributed stochastic neighbor embedding (t-SNE) high dimensional analysis was performed using FlowJo software. […] Using multivariate t-SNE FACS analysis based on pooled analysis from three mice per group, 4 distinct population clusters were identified (FIG. 8B). FACs histograms showing the individual expression profiles of CD4, CD8, CD62L, CD45RA, CD44 and CXCR3 from the 4 gated t-SNE in FIG. 8A overlaid on the expression of the total population (shaded) is shown in FIG. 8C. […] Statistically significant differences are indicated as […] (*), P<0.01 (**), P<0.001 (***), P<0.0001 (****).

The next assay has as its system anti-CD19 CAR-T cells. In words: Serial restimulation assay, expansion of anti-CD19 CAR-T cells. The assay is classed as cell-based, human. The protocol:
The ability of cells to expand ex vivo following repeated stimulations in some aspects can indicate capacity of CAR-T cells to persist (e.g., following initial activation) and/or is indicative of function and/or fitness in vivo (Zhao et al. (2015) Cancer Cell, 28:415-28). Anti-CD19 CAR-T cells generated as described above were plated in triplicate at 100,000 cells/well on 96 well Poly-D-Lysine coated plates, and irradiated target cells (K562-CD19) were added at an effector to target ratio of 2.5:1. […] A total of 7 rounds of stimulation during a 25 day culture period were carried out.
For each round of stimulation, the fold change in cell number and the number of doublings was determined. […] Expansion kinetics were similar in all treatment groups after three rounds of stimulation (day 11), as observed by fold change and number of population doublings. […] The cells derived from the two donors in which these differences were observed, generally, as compared to those derived from the other donor, performed less well in the serial restimulation assay in the absence of either inhibitor.

Turning to `CC#CC(=O)N1CCC[C@H]1c1nc(-c2ccc(C(=O)Nc3ccccn3)cc2)c2c(N)nccn12` [compound of Formula (II)], the “tumor growth compared with CAR T administered with vehicle alone” value in assay [1] (with CAR T, drinking water 25 mg/kg/day) is “significantly (P<0.001) decreased tumor growth”. Besides, the “median survival compared to suboptimal anti-CD19 CAR T cell dose+vehicle” value in assay [1] (with CAR-T cells, drinking water 25 mg/kg/day from day 4, p<0.001) is “increased median survival”. For the same compound, the “population 2 (CD8+CD44hiCXCR3hiCD45RAloCD62Lhi) and population 4 (CD4+CD44hiCXCR3intCD45RAhiCD62Lhi) compared to control mice” value in assay [2] was “An increase”. Also, in assay [2] (pooled from three mice), the “population 2 as share of CAR-T cells” value is 29.2% and the “population 4 as share of CAR-T cells” value amounted to 8.4%. Further, the “expansion as measured by population doublings following multiple rounds of restimulation” value in the assay with anti-CD19 CAR-T cells (by day 18, CAR+ T cells from two of the three donors, each concentration assessed) is “observed to be enhanced”. In the assay on anti-CD19 CAR-T cells (donor 3, highest concentration tested), the “cell counts after five rounds of stimulation (day 18)” value is reported as “Non-significant, increased cell counts”.
